Key:
[1] = In vivo localization (biodistribution) in athymic female nude mice bearing subcutaneous MCF-7 tumor xenografts; parameters: species or system athymic female NCR-Nu Mice; details: mouse, sc, tail vein, subcutaneous MCF-7, mean, n = 5; for tissue uptake: 10-12 hours
Description: (§1) In vivo localization of 11β-ethyl-17α-(Z)-[^125 I](iodovinyl)estra-3,17β-diol (5) and a control compound 16α-[^125 I]iodovinyl-3,17β-estradiol (commercially available from DuPont New England Nuclear, MA) was determined in athymic female NCR-Nu Mice (purchased from Simonsen Laboratories, Gilroy, Calif.) bearing subcutaneous MCF-7(ER+) breast tumor xenografts. Prior to injection of the compounds, the mice were each implanted with fragments of MCF-7 breast tumor (approximately 2 cubic millimeters) in the subcutis of the left flank. At approximately the same time, a 1.7 mg estradiol pellet (Innovative Research of America, Toledo, Ohio) was implanted in the scapular region. The tumors were allowed to grow until they reached between 50 and 200 mg by visual inspection (approximately four to five weeks) prior to injection of the test compounds. One day prior to injection of the test compounds, the estradiol pellet was removed.
(§2) The mice were each injected via tail vein with between 3 (1.1×10^5 Bq) and 6 μCi ([…]) ^125 I in approximately 50 μL of phosphate buffered saline. The mice were sacrificed at various time intervals. After exsanguination, the selected organ/tissue were excised, weighed and radioactivity measured in a gamma counter. The counts per minute (cpm) of 125I in each tissue was determined and expressed as cpm per gram of tissue per injected dose multiplied by 100 (percent injected dose/gram).

[2] = In vivo localization (biodistribution) in athymic female nude mice bearing intraperitoneal MCF-7 tumors; parameters: species or system athymic female NCR-Nu Mice; details: mouse, in vivo, ip; for tissue uptake: 10-12 hours
Description: as §1, §2
The procedure of Example 3 was followed except each mouse was inoculated intraperitoneally with MCF-7 breast carcinoma cell line (7.5×10^6 cell/50 μL) rather than implanted subcutaneously with MCF-7 breast tumor. One day prior to this procedure, a 1.7 mg estradiol pellet was implanted subcutaneously in the scapular region. The tumor cells were allowed to form solid tumor nodules for 4 to 6 weeks prior to injection of the test compounds.

[3] = mcf-7 tumor, Tumor, read-out: Percent Injected Dose/Gram, tumor
[4] = Blood, read-out: Percent Injected Dose/Gram, blood
[5] = Fat, read-out: Percent Injected Dose/Gram, fat
[6] = Kidney, read-out: Percent Injected Dose/Gram, kidney
[7] = Liver, read-out: Percent Injected Dose/Gram, liver
[8] = Muscle, read-out: Percent Injected Dose/Gram, muscle
[9] = Spleen, read-out: Percent Injected Dose/Gram, spleen
[10] = uterus, Uteri, read-out: Percent Injected Dose/Gram, uteri
[11] = Percent Injected Dose/Gram, kidney
[12] = Percent Injected Dose/Gram, liver
[13] = Percent Injected Dose/Gram, muscle
[14] = Percent Injected Dose/Gram, spleen
[15] = Percent Injected Dose/Gram, tumor

Compound CC[C@H]1C[C@@]2(C)[C@@H](CC[C@@]2(O)/C=C\[125I])[C@@H]2CCc3cc(O)ccc3[C@@H]12 [Compound 5, 11β-ethyl-17α-(Z)-[^125 I](iodovinyl)estra-3,17β-diol] has a tissue uptake [1, 3] of 0.83 %ID/g, a tissue uptake at 2 h [1, 3] of 1.15 %ID/g and a tissue uptake at 6 h [1, 3] of 1.1 %ID/g. For the same compound, the tissue uptake at 24 h [1, 3] was 0.55 %ID/g, the tissue uptake at 48 h [1, 3] was 0.36 %ID/g and the tissue uptake [1, 4] was 0.37 %ID/g. The tissue uptake at 2 h [1, 4] was 1.11 %ID/g, the tissue uptake at 6 h [1, 4] was 1.06 %ID/g and the tissue uptake at 24 h [1, 4] was 0.09 %ID/g. For the same compound, the tissue uptake at 48 h [1, 4] was 0.03 %ID/g, the tissue uptake [1, 5] was 0.82 %ID/g and the tissue uptake at 2 h [1, 5] was 2.18 %ID/g. The tissue uptake at 6 h [1, 5] was 1.72 %ID/g, the tissue uptake at 24 h [1, 5] was 0.14 %ID/g and the tissue uptake [1, 6] was 0.45 %ID/g. It also gave a tissue uptake at 2 h [1, 6] of 1.24 %ID/g, a tissue uptake at 6 h [1, 6] of 1.01 %ID/g and a tissue uptake at 24 h [1, 6] of 0.1 %ID/g. The tissue uptake at 48 h [1, 6] was 0.02 %ID/g, the tissue uptake [1, 7] was 2.39 %ID/g and the tissue uptake at 2 h [1, 7] was 5.61 %ID/g. It also gave a tissue uptake at 6 h [1, 7] of 5.34 %ID/g, a tissue uptake at 24 h [1, 7] of 0.87 %ID/g and a tissue uptake at 48 h [1, 7] of 0.36 %ID/g. It also gave a tissue uptake [1, 8] of 0.09 %ID/g, a tissue uptake at 2 h [1, 8] of 0.56 %ID/g and a tissue uptake at 6 h [1, 8] of 0.33 %ID/g. The tissue uptake [1, 9] was 0.54 %ID/g, the tissue uptake at 2 h [1, 9] was 1.26 %ID/g and the tissue uptake at 6 h [1, 9] was 0.97 %ID/g. For the same compound, the tissue uptake at 24 h [1, 9] was 0.18 %ID/g, the tissue uptake at 48 h [1, 9] was 0.06 %ID/g and the tissue uptake [1, 10] was 3.66 %ID/g. For the same compound, the tissue uptake at 2 h [1, 10] was 4.66 %ID/g, the tissue uptake at 6 h [1, 10] was 4.4 %ID/g and the tissue uptake at 24 h [1, 10] was 1.95 %ID/g. The tissue uptake at 48 h [1, 10] was 1.26 %ID/g, the tissue uptake ([2]; Blood, tail vein, intraperitoneal MCF-7, mean, n = 5, read-out: Percent Injected Dose/Gram, blood) was 0.61 %ID/g and the tissue uptake at 2 h ([2]; Blood, 2 hours, tail vein, intraperitoneal MCF-7, mean, n = 5, read-out: Percent Injected Dose/Gram, blood) was 2.07 %ID/g. It also gave a tissue uptake at 6 h ([2]; Blood, 6 hours, tail vein, intraperitoneal MCF-7, mean, n = 5, read-out: Percent Injected Dose/Gram, blood) of 0.88 %ID/g, a tissue uptake ([2]; Fat, tail vein, intraperitoneal MCF-7, mean, n = 5, read-out: Percent Injected Dose/Gram, fat) of 0.67 %ID/g and a tissue uptake at 2 h ([2]; Fat, 2 hours, tail vein, intraperitoneal MCF-7, mean, n = 5, read-out: Percent Injected Dose/Gram, fat) of 3.1 %ID/g. It also gave a tissue uptake at 6 h ([2]; Fat, 6 hours, tail vein, intraperitoneal MCF-7, mean, n = 5, read-out: Percent Injected Dose/Gram, fat) of 1.64 %ID/g, a tissue uptake at 24 h ([2]; Fat, 24 hours, tail vein, intraperitoneal MCF-7, mean, n = 5, read-out: Percent Injected Dose/Gram, fat) of 0.12 %ID/g and a tissue uptake at 2 h [2, 11] of 2.08 %ID/g. For the same compound, the tissue uptake at 6 h [2, 11] was 0.78 %ID/g, the tissue uptake at 24 h [2, 11] was 0.13 %ID/g and the tissue uptake at 48 h [2, 11] was 0.03 %ID/g. The tissue uptake at 2 h [2, 12] was 8.26 %ID/g, the tissue uptake at 6 h [2, 12] was 4.08 %ID/g and the tissue uptake at 24 h [2, 12] was 1.14 %ID/g. It also gave a tissue uptake at 48 h [2, 12] of 0.44 %ID/g, a tissue uptake at 2 h [2, 13] of 0.69 %ID/g and a tissue uptake at 6 h [2, 13] of 0.31 %ID/g. The tissue uptake at 2 h [2, 14] was 1.72 %ID/g, the tissue uptake at 6 h [2, 14] was 0.86 %ID/g and the tissue uptake at 24 h [2, 14] was 0.16 %ID/g. It also gave a tissue uptake at 48 h [2, 14] of 0.06 %ID/g, a tissue uptake at 2 h [2, 15] of 2.33 %ID/g and a tissue uptake at 6 h [2, 15] of 1.6 %ID/g. It also gave a tissue uptake at 24 h [2, 15] of 1.07 %ID/g, a tissue uptake at 48 h [2, 15] of 0.76 %ID/g and a tissue uptake ([2]; Uteri, tail vein, intraperitoneal MCF-7, mean, n = 5, read-out: Percent Injected Dose/Gram, uteri) of 3.95 %ID/g. The tissue uptake at 2 h ([2]; Uteri, 2 hours, tail vein, intraperitoneal MCF-7, mean, n = 5, read-out: Percent Injected Dose/Gram, uteri) was 6.47 %ID/g, the tissue uptake at 6 h ([2]; Uteri, 6 hours, tail vein, intraperitoneal MCF-7, mean, n = 5, read-out: Percent Injected Dose/Gram, uteri) was 4.43 %ID/g and the tissue uptake at 24 h ([2]; Uteri, 24 hours, tail vein, intraperitoneal MCF-7, mean, n = 5, read-out: Percent Injected Dose/Gram, uteri) was 3.35 %ID/g. For the same compound, the tissue uptake at 48 h ([2]; Uteri, 48 hours, tail vein, intraperitoneal MCF-7, mean, n = 5, read-out: Percent Injected Dose/Gram, uteri) was 1.62 %ID/g.

Reference: US5427766A, “Radiolabeled steroids for use in radiochemical-guided surgery” (priority 1993, dated 1995)
